Tests used:
Assay in all cases: relative viability (nuclei count vs DMSO), 5 days (fraction); higher = more cells survive
AZ505 + Luminespib = compound: C1CCC(CC1)N(CCNCCC2=C3C(=C(C=C2)O)NC(=O)CO3)C(=O)CCNCCC4=CC(=C(C=C4)Cl)Cl [AZ505] + CCNC(=O)c1noc(-c2cc(C(C)C)c(O)cc2O)c1-c1ccc(CN2CCOCC2)cc1 [Luminespib] (partner 0.01 µM)
Outline: (§1)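 Medians of duplicate plates are given as relative viability. That measure is the nuclei count in treated wells divided by the count in vehicle wells. Counts were taken on 4× images of lung cancer cell lines in 1536-well plates, 5 days after pin-tool dosing the day after seeding with one drug alone or a fixed anchor-drug dose plus five library-drug doses (not always all listed) in √10 steps.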

Dactolisib + OSI-027 = compound: Cn1c(=O)n(-c2ccc(C(C)(C)C#N)cc2)c2c3cc(-c4cnc5ccccc5c4)ccc3ncc21 [Dactolisib] + COc1cccc2cc(-c3nc([C@H]4CC[C@H](C(=O)O)CC4)n4ncnc(N)c34)[nH]c12 [OSI-027] (partner 0.5 µM)
Outline: as §1

AZ505 + Pictilisib = compound: C1CCC(CC1)N(CCNCCC2=C3C(=C(C=C2)O)NC(=O)CO3)C(=O)CCNCCC4=CC(=C(C=C4)Cl)Cl [AZ505] + CS(=O)(=O)N1CCN(Cc2cc3nc(-c4cccc5[nH]ncc45)nc(N4CCOCC4)c3s2)CC1 [Pictilisib] (partner 1 µM)
Outline: as §1

Dactolisib + AZD7762 = compound: Cn1c(=O)n(-c2ccc(C(C)(C)C#N)cc2)c2c3cc(-c4cnc5ccccc5c4)ccc3ncc21 [Dactolisib] + NC(=O)Nc1cc(-c2cccc(F)c2)sc1C(=O)N[C@H]1CCCNC1 [AZD7762] (partner 0.2 µM)
Outline: as §1

Cell Line	relative viability (AZ505 + Luminespib; first compound 0.08 µM)	relative viability (AZ505 + Luminespib; first compound 0.253 µM)	relative viability (AZ505 + Luminespib; first compound 0.8 µM)	relative viability (AZ505 + Luminespib; first compound 2.53 µM)	relative viability (AZ505 + Luminespib; first compound 8 µM)	relative viability (Dactolisib + OSI-027; first compound 0.002 µM)	relative viability (Dactolisib + OSI-027; first compound 0.006325 µM)	relative viability (Dactolisib + OSI-027; first compound 0.02 µM)	relative viability (Dactolisib + OSI-027; first compound 0.06325 µM)	relative viability (Dactolisib + OSI-027; first compound 0.2 µM)	relative viability (AZ505 + Pictilisib; first compound 0.08 µM)	relative viability (AZ505 + Pictilisib; first compound 0.253 µM)	relative viability (AZ505 + Pictilisib; first compound 0.8 µM)	relative viability (AZ505 + Pictilisib; first compound 2.53 µM)	relative viability (AZ505 + Pictilisib; first compound 8 µM)	relative viability (Dactolisib + AZD7762; first compound 0.002 µM)	relative viability (Dactolisib + AZD7762; first compound 0.006325 µM)	relative viability (Dactolisib + AZD7762; first compound 0.02 µM)	relative viability (Dactolisib + AZD7762; first compound 0.06325 µM)	relative viability (Dactolisib + AZD7762; first compound 0.2 µM)
NCI-H596	0.928	0.917	0.976	0.992	0.965	0.694	0.653	0.692	0.399	0.315	0.362	0.382	0.355	0.394	0.445	1.21	1.03	0.946	0.774	0.396
NCI-H647	0.122	0.221	0.119	0.134	0.138	0.734	0.863	0.499	0.144	0.184	0.448		0.359	0.422	0.485	0.36	0.337	0.276	0.159	0.111
NCI-H650	0.726	0.777	0.835	0.774	0.709	0.509	0.518	0.641	0.592	0.372	0.69	1.01	0.876	0.86	0.885	1.04	1.07	0.9	0.79	0.469
NCI-H727	0.319	0.336	0.328		0.421	0.519	0.435	0.538	0.47	0.4	0.327	0.313	0.468	0.274	0.47		0.519	0.468	0.47	0.45
NCI-H838	0.413	0.251	0.253	0.287	0.424	0.424	0.477	0.317	0.252	0.274	0.342	0.404	0.493	0.344	0.411	0.845	0.908	0.843	0.709	0.633
NCI-H1355	0.672	0.701	0.655	0.675	0.718	0.436	0.475	0.455	0.328	0.246	0.409	0.338	0.428	0.321	0.445	0.834	0.73	0.699	0.419	0.308
NCI-H1395	0.618	0.752	0.693	0.696	0.66	0.666	0.646	0.709	0.647	0.521	0.704	0.563	0.512	0.635	0.698	0.375	0.373	0.391	0.373	0.355
NCI-H1437	1.04	1.15	1.17	1.09	1.07	0.849	0.903	0.883	0.834	0.586	0.46	0.424	0.599	0.415	0.404	1.07	1.18	1.12	1.05	1.1

— the supplement of paper PMC10307832
